± gives the standard deviation of the averaged measurements.
How the values were obtained:
[1] = system: Homo sapiens (human subject panel, olfactory perception); experiment: perceived odor pleasantness rating (rating 0-100); higher = more pleasant
How it was run: (§1)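 For each molecule, 1 mL diluted in paraffin oil was sniffed at high and low concentrations by 55 healthy human subjects aged 18–50, with the six lowest performers excluded. Presentation order was randomized over ten visits of 100 stimuli. Subjects who reported smelling a stimulus moved a computerized slider from its starting position of 50, and positions were converted to a 0–100 scale. The familiarity, intensity and pleasantness ratings are averaged across subjects.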

[2] = system: Homo sapiens (human subject panel, olfactory perception); experiment: perceived odor intensity rating (rating 0-100); higher = stronger perceived smell
How it was run: as §1

[3] = system: Homo sapiens (human subject panel, olfactory perception); experiment: perceived odor familiarity rating (rating 0-100); higher = more familiar
How it was run: as §1

[4] = odor dilution in paraffin oil: 1/10
[5] = odor dilution in paraffin oil: 1/1,000
[6] = odor dilution in paraffin oil: 1/100,000

Row | SMILES | perceived odor pleasantness rating [1, 4] | perceived odor pleasantness rating [1, 5] | perceived odor intensity rating [2, 4] | perceived odor intensity rating [2, 5] | perceived odor familiarity rating [3, 4] | perceived odor familiarity rating [3, 5] | perceived odor pleasantness rating [1, 6] | perceived odor intensity rating [2, 6] | perceived odor familiarity rating [3, 6]
1 | CCCCCCCCCC=O [decanal] | 28.7 ± 23 | 33.3 ± 23 | 78.9 ± 20 | 59.9 ± 25 | 51.9 ± 35 | 44 ± 30 | – | – | –
2 | CCCCCCCCCC(=O)O [decanoic acid] | 28.3 ± 26 | 28.7 ± 19 | 75.9 ± 22 | 50.2 ± 30 | 47.4 ± 34 | 40.6 ± 29 | – | – | –
3 | CCCCCCCCCCO [decanol] | – | 38.6 ± 28 | – | 66 ± 27 | – | 49.6 ± 33 | 46.8 ± 25 | 29.1 ± 24 | 39.4 ± 32
4 | CCCCCC1CCCC(=O)O1 (stereo not drawn) [delta-Decalactone] | – | 69.3 ± 22 | – | 65.7 ± 28 | – | 62.5 ± 28 | 72.4 ± 20 | 52 ± 28 | 60.8 ± 29
5 | CC1CCCC(=O)O1 (stereo not drawn) [delta-Hexalactone] | – | 45 ± 25 | – | 48.4 ± 32 | – | 38.8 ± 31 | 50.5 ± 21 | 18.4 ± 21 | 32.7 ± 28
6 | CCCCCCCCCC1CCCC(=O)O1 (stereo not drawn) [delta-Tetradecalactone (replicate)] | – | 41.9 ± 20 | – | 33 ± 30 | – | 37.7 ± 24 | 51.2 ± 20 | 13.9 ± 20 | 26 ± 28
7 | CCCCCCCCCC1CCCC(=O)O1 (stereo not drawn) [delta-Tetradecalactone] | – | 45.5 ± 24 | – | 33.7 ± 26 | – | 47.2 ± 27 | 48.1 ± 22 | 20.7 ± 24 | 33 ± 25
8 | CCCCCCC1CCCC(=O)O1 (stereo not drawn) [delta-Undecalactone] | – | 60.7 ± 31 | – | 64.9 ± 28 | – | 51.5 ± 33 | 60.7 ± 25 | 34.4 ± 30 | 41.4 ± 30
9 | CCOC(=O)CCC(=O)OCC [diethyl succinate] | 60.9 ± 22 | 57.7 ± 24 | 70.6 ± 24 | 47.1 ± 29 | 53.4 ± 30 | 44.4 ± 30 | – | – | –
10 | COC(=O)CCC(=O)OC [dimethyl succinate] | 49.1 ± 27 | 43.6 ± 22 | 63.2 ± 28 | 53.9 ± 29 | 46.2 ± 31 | 43.2 ± 29 | – | – | –
11 | CCCSSCCC [dipropyl disulfide] | – | 35.9 ± 26 | – | 79.9 ± 21 | – | 65.6 ± 31 | 40.1 ± 28 | 59.7 ± 31 | 65.5 ± 30
12 | O=C1CCCCCN1 [epsilon-Caprolactam] | 46 ± 25 | 40.9 ± 26 | 30.6 ± 30 | 31.3 ± 33 | 31.2 ± 28 | 39.4 ± 35 | – | – | –
13 | CCO [ethanol] | – | 60.9 ± 23 | – | 19.5 ± 28 | – | 41.4 ± 31 | 49.6 ± 23 | 14.2 ± 18 | 34.1 ± 28
14 | CCOC(C)=O [ethyl acetate] | – | 45.2 ± 22 | – | 40.3 ± 29 | – | 44.2 ± 30 | 45.7 ± 29 | 19.3 ± 24 | 40 ± 32
15 | CCCC(=O)OCC [ethyl butyrate] | – | 61.1 ± 33 | – | 77.8 ± 20 | – | 65.6 ± 29 | 59.6 ± 26 | 49.6 ± 32 | 53.5 ± 30
16 | CCOC(=O)/C=C/c1ccccc1 [ethyl cinnamate] | – | 54.8 ± 26 | – | 61.5 ± 29 | – | 43.8 ± 29 | 63.1 ± 24 | 55.2 ± 27 | 43.3 ± 27
17 | CCCCCC(=O)OCC [ethyl hexanoate] | – | 78.6 ± 19 | – | 73.9 ± 20 | – | 69.4 ± 27 | 71.6 ± 16 | 53.3 ± 28 | 56.4 ± 29
18 | CCOC(=O)CC [ethyl propionate] | – | 39.9 ± 31 | – | 75.7 ± 24 | – | 50.7 ± 31 | 31.3 ± 30 | 53.9 ± 32 | 44.5 ± 34

— the supplement of paper PMC4977894
